This note sets out measurements from patent US7671045B2, “17-phosphorous steroid derivatives useful as progesterone receptor modulators” (Janssen Pharmaceutica N.V., priority 2006, dated 2010).

Assay [1] relates to T47D human breast cancer cells. Briefly: Alkaline phosphatase assay in human breast cancer cell line T47D. Format: cell-based. The procedure: Alkaline Phosphatase Assay in Human Breast Cancer Cell Line T47D
T47D human breast cancer cells were grown in RPMI medium without phenol red (Invitrogen) containing 10% (v/v) heat-inactivated fetal bovine serum (FBS; Hyclone), 1% (v/v) penicillin-streptomycin (Invitrogen), 1% (w/v) glutamine (Invitrogen), and […] insulin (Sigma). Incubation conditions were 37° C. in a humidified 5% (v/v) carbon dioxide environment.
The cells were plated in 96-well tissue culture plates at 10,000 cells per well in assay medium [RPMI medium without phenol red (Invitrogen) containing 5% (v/v) charcoal-treated FBS (Hyclone) and 1% (v/v) penicillin-streptomycin (Invitrogen)]. Two days later, the medium was decanted and test compound or control were added at a final concentration of 0.1% (v/v) dimethyl sulfoxide in fresh assay medium. Twenty-four hours later, an alkaline phosphatase assay was performed using a SEAP kit (BD Biosciences Clontech, Palo Alto, Calif.). Briefly, the medium was decanted and the cells were fixed for 30 minutes at room temperature with 5% (v/v) formalin (Sigma). The cells were washed once with room temperature Hank's buffered saline solution (Invitrogen). Equal volumes (0.05 mL) of 1× Dilution Buffer, Assay Buffer and 1:20 substrate/enhancer mixture were then added. After 1 hour incubation at room temperature in the dark, the lysate was transferred to a white 96-well plate (Dynex) and luminescence was read using a LuminoSkan Ascent (Thermo Electron, Woburn, Mass.).

Assay [2] has as its system A549 Human lung carcinoma cells. Briefly: Transient transfection and Steady Glo luciferase assay in A549 cells with dexamethasone challenge. Format: cell-based. The procedure:
Transient Transfection and Steady Glo Luciferase Assay
A549 Human lung carcinoma cells were grown in F-12K Nutrient Mixture containing 10% (v/v) fetal bovine serum (FBS; Invitrogen), 2 mM glutamine and 0.15% […] (Invitrogen)
A549 cells were split 1 to 3 in 175 cm tissue culture flask. The cells were incubated at 37° C. in CO2 incubator until the cells were 95% confluent (typically 24-30 hours).
The following solutions were prepared in sterile tubes: (a) Solution A: 1.5 μg/ml of DNA in 8.5 ml OPTI-MEM I Reduced Serum Medium. (GIBCO cat# 31985) and (b) Solution B: 6 μl/ml of DMRIE-C Reagent into […] OPTI-MEM I. The two solutions were combined and mixed gently, then incubated at room temperature for 40 minutes.
The A549 cells prepared above were washed with […] of OPTI-MEM I. The medium was removed and 17 ml of the lipid-DNA complex solution was overlayed onto cells. The cells ere then incubated for 16 h at 37° C. in CO2 incubator. The DNA-containing medium was removed and 30 ml of growth medium was added. (5% Charcoal treated FBS) After 5-6 h, the cells were seeded in a 96 well plate and the cells incubated overnight at 37° C. in CO2 incubator.
To each well was then added 5 μl of test compounds and the cells incubated at 37° C. for 10 min. 5 μL of dexamathasone (CAS [50-02-2]), a glucocorticoid agonist, solution was then added to each well for challenger and the cells incubated at 37° C. in CO2 incubator for 24 h. 100 μl of Luc-assay buffer was then added into each cell well and the cells incubated for 30 min at room temperature. A 150 μL sample from each well was then transferred into a DYNEX Microlitel plate and read on Top-counter.

The mark [3] stands for this setting: T47D, 24 h, read-out: T47D IC50 (nM).
Where [4] appears, read: A549, 24 h, read-out: A549 IC50 (nM).
Where [5] appears, read: T47D cells, alkaline phosphatase readout, 24 h with test compound, read-out: T47D IC50.
The mark [6] stands for this setting: transfected A549 cells, luciferase readout, challenged with dexamethasone (glucocorticoid agonist), 24 h, read-out: A549 IC50.

Where two headings read alike, the source gives them in different places. A value given as a limit tells only on which side of the number the result lay.

Broadly, the IC50 is the point on the concentration scale where inhibition reaches its midpoint. With `C=C(C)[C@]1(O)CC[C@H]2[C@@H]3CCC4=CC(=O)CCC4=C3[C@@H](c3ccc(P(=O)(OCC)OCC)cc3)C[C@@]21C` [Compound 11], the half-maximal inhibitory concentration (IC50) in assay [1] (setting [3]) stood at 51.3 nM; in assay [2] (setting [4]) it was 66.3 nM.

`COP(=S)(C#C[C@]1(O)CC[C@H]2[C@@H]3CCC4=CC(=O)CCC4=C3[C@@H](c3ccc(N(C)C)cc3)C[C@@]21C)OC` [Compound 105]: the half-inhibitory concentration (IC50) in assay [1] (setting [3]) turned out to be 1.44 nM; in assay [2] (setting [4]), 55.8 nM.

For `CN(C)c1ccc([C@H]2C[C@@]3(C)[C@@H](CC[C@@]3(O)C#CP(=O)(N(C)C)N(C)C)[C@@H]3CCC4=CC(=O)CCC4=C32)cc1` [Compound 106], the IC50 in assay [1] (setting [5]) is 7.53 nM; in assay [2] (setting [6]), 121 nM.

Regarding `C[C@]12C[C@H](c3ccc(P(=O)(c4ccccc4)c4ccccc4)cc3)C3=C4CCC(=O)C=C4CC[C@H]3[C@@H]1CC[C@@]2(O)C#Cc1ccccc1` [Compound 30], the IC50 in assay [1] (setting [5]) was 275 nM; in assay [2] (setting [6]), 93 nM.

As to `CN(C)c1ccc([C@H]2C[C@@]3(C)[C@@H](CC[C@@]3(O)C#CP(=O)(N3CCOC3=O)N3OCCC3=O)[C@@H]3CCC4=CC(=O)CCC4=C32)cc1` (some centres unmarked) [Compound 104], the values for the half-inhibitory concentration (IC50) in assay [1] (setting [5]) and in assay [2] (setting [6]) were 7.25 nM and 64 nM, respectively.

With `CC#C[C@]1(O)CC[C@H]2[C@@H]3CCC4=CC(=O)CCC4=C3[C@@H](c3ccc(P(=O)(OCC)OCC)cc3)C[C@@]21C` [Compound 26], the IC50 worked out at 125 nM in assay [1] (setting [3]) and 41.5 nM in assay [2] (setting [4]).

Regarding `C=C1CCO[C@]12CC[C@H]1[C@@H]3CCC4=CC(=O)CCC4=C3[C@@H](c3ccc(P(=O)(Oc4ccccc4)Oc4ccccc4)cc3)C[C@@]12C` [Compound 37], the concentration for half-maximal inhibition (IC50) in assay [1] (setting [5]) came out at 3.3 nM; in assay [2] (setting [6]), 34.3 nM.

Consider `CN(C)c1ccc([C@H]2C[C@@]3(C)[C@@H](CC[C@@]3(O)C#CP(C)(C)=O)[C@@H]3CCC4=CC(=O)CCC4=C32)cc1` [Compound 102], for which the figures for the half-inhibitory concentration (IC50) in assay [1] (setting [5]) and in assay [2] (setting [6]) were 7.3 nM and 70.4 nM, respectively.

As for `CCOP(=O)(C#C[C@]1(O)CC[C@H]2[C@@H]3CCC4=CC(=O)CCC4=C3[C@@H](c3ccc(N(C)C)cc3)C[C@@]21C)OCC` [Compound 101], the results for the half-maximal inhibitory concentration (IC50) in assay [1] (setting [3]) and in assay [2] (setting [4]) were 1.3 nM and more than 100 nM, respectively.

On to `CCOP(=O)(OCC)c1ccc([C@H]2C[C@@]3(C)[C@@H](CC[C@@]3(O)C#Cc3ccccc3)[C@@H]3CCC4=CC(=O)CCC4=C32)cc1` [Compound 25], for which the IC50 in assay [1] (setting [3]) came out at 38.2 nM; in assay [2] (setting [4]), 83.8 nM.
